Read-outs that look alike come from different tables or passages of the source.
Assays:
primary human T-cells [1] = test system: primary human T-cells
primary human T-cells [2] = assay: Proliferation assay after 5 days (CellTiter-Glo, CD3 stimulation; PBS counter screen); format: cell-based; details: Homo sapiens, T-cell, 120 h, CD3 stimulation; for Emax: 5 days, normalized to reference compound A1 as stimulator control = 100%, DMSO neutral control, read-out: Emax proliferation (% activation); for EC50: primary human T-cells, CellTiter-Glo after 5 days, EC50 of fitted sigmoidal curve, read-out: Tcell Proliferation CD3 EC50
Outline: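 Luminescent ATP detection (CellTiter-Glo 2.0) quantified cell number 5 days after compounds went onto medium-only plates. Wells showing visible toxicity or precipitate were noted beforehand, and compounds that stimulated unstimulated cells or lowered viability were flagged.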

EC50 (primary human T-cells [1]) | Compound | Emax (primary human T-cells [2]) | EC50 (primary human T-cells [2])
> 10000 nM | CC1(C)CNCC(c2nc(-c3cc4c(cc3F)S(=O)(=O)C[C@H](N)C(=O)N4Cc3ccc(Cl)cc3)no2)C1 (stereo partly drawn) [Example 302, (3R)-3-amino-5-[(4-chlorophenyl)methyl]-7-[5-(5,5-dimethyl-3-piperidyl)-1,2,4-oxadiazol-3-yl]-8-fluoro-1,1-dioxo-2,3-dihydro-1λ^6,5-benzothiazepin-4-one] | 76% | 990 nM
8140 nM | CNC(=O)N1CCC(C)(c2nc(-c3cc4c(cc3F)S(=O)(=O)C[C@H](N)C(=O)N4Cc3ccc(Cl)cc3)no2)CC1 [Example 304, 4-[3-[(3R)-3-amino-5-[(4-chlorophenyl)methyl]-8-fluoro-1,1,4-trioxo-2,3-dihydro-1λ^6,5-benzothiazepin-7-yl]-1,2,4-oxadiazol-5-yl]-N,4-dimethyl-piperidine-1-carboxamide] | 61% | 7490 nM
1810 nM | CC1(c2nc(-c3cc4c(cc3F)S(=O)(=O)C[C@H](N)C(=O)N4Cc3ccc(Cl)cc3)no2)CCN(C(=O)N2CCCC2)CC1 [Example 305, (3R)-3-amino-5-[(4-chlorophenyl)methyl]-8-fluoro-7-[5-[4-methyl-1-(pyrrolidine-1-carbonyl)-4-piperidyl]-1,2,4-oxadiazol-3-yl]-1,1-dioxo-2,3-dihydro-1λ^6,5-benzothiazepin-4-one] | 84% | 720 nM
3240 nM | Cc1ccncc1-c1nc(-c2cc3c(cc2F)S(=O)(=O)C[C@H](N)C(=O)N3Cc2ccc(Cl)cc2)no1 [Example 310, (3R)-3-amino-5-[(4-chlorophenyl)methyl]-8-fluoro-7-[5-(4-methyl-3-pyridyl)-1,2,4-oxadiazol-3-yl]-1,1-dioxo-2,3-dihydro-1λ^6,5-benzothiazepin-4-one] | 90% | 2710 nM
226 nM | Cc1nc(F)ccc1-c1nc(-c2cc3c(cc2F)S(=O)(=O)C[C@H](N)C(=O)N3Cc2ccc(Cl)cc2)no1 [Example 312, (3R)-3-amino-5-[(4-chlorophenyl)methyl]-8-fluoro-7-[5-(6-fluoro-2-methyl-3-pyridyl)-1,2,4-oxadiazol-3-yl]-1,1-dioxo-2,3-dihydro-1λ^6,5-benzothiazepin-4-one] | 163% | 80.6 nM
550 nM | N[C@H]1CS(=O)(=O)c2cc(F)c(-c3noc(C4(C(F)(F)F)CC4)n3)cc2N(Cc2ccc(Cl)cc2)C1=O [Example 318, (3R)-3-amino-5-[(4-chlorophenyl)methyl]-8-fluoro-1,1-dioxo-7-[5-[1-(trifluoromethyl)cyclopropyl]-1,2,4-oxadiazol-3-yl]-2,3-dihydro-1λ^6,5-benzothiazepin-4-one] | 140% | 255 nM
458 nM | CC(O)(c1nc(-c2cc3c(cc2F)S(=O)(=O)C[C@H](N)C(=O)N3Cc2ccc(Cl)cc2)no1)C(F)(F)F (stereo partly drawn) [Example 319, (3R)-3-amino-5-[(4-chlorophenyl)methyl]-8-fluoro-1,1-dioxo-7-[5-(2,2,2-trifluoro-1-hydroxy-1-methyl-ethyl)-1,2,4-oxadiazol-3-yl]-2,3-dihydro-1λ^6,5-benzothiazepin-4-one] | 113% | 244 nM
3210 nM | N[C@H]1CS(=O)(=O)c2cc(F)c(-c3noc(C4(CO)CCCO4)n3)cc2N(Cc2ccc(Cl)cc2)C1=O (stereo partly drawn) [Example 320, (3R)-3-amino-5-[(4-chlorophenyl)methyl]-8-fluoro-7-[5-[2-(hydroxymethyl)tetrahydrofuran-2-yl]-1,2,4-oxadiazol-3-yl]-1,1-dioxo-2,3-dihydro-1λ^6,5-benzothiazepin-4-one] | 107% | 3060 nM
597 nM | CC(C)(C#N)c1nc(-c2cc3c(cc2F)S(=O)(=O)C[C@H](N)C(=O)N3Cc2ccc(Cl)cc2)no1 [Example 321, 2-[3-[(3R)-3-amino-5-[(4-chlorophenyl)methyl]-8-fluoro-1,1,4-trioxo-2,3-dihydro-1λ^6,5-benzothiazepin-7-yl]-1,2,4-oxadiazol-5-yl]-2-methyl-propanenitrile] | 130% | 250 nM
740 nM | Cc1nnc(-c2nc(-c3cc4c(cc3F)S(=O)(=O)C[C@H](N)C(=O)N4Cc3ccc(Cl)cc3)no2)o1 [Example 322, (3R)-3-amino-5-[(4-chlorophenyl)methyl]-8-fluoro-7-[5-(5-methyl-1,3,4-oxadiazol-2-yl)-1,2,4-oxadiazol-3-yl]-1,1-dioxo-2,3-dihydro-1λ^6,5-benzothiazepin-4-one] | 110% | 751 nM

Compound | EC50 (primary human T-cells [1]) | Emax (primary human T-cells [2]) | EC50 (primary human T-cells [2])
CCN1CCC(C)(c2nc(-c3cc4c(cc3F)S(=O)(=O)C[C@H](N)C(=O)N4Cc3ccc(Cl)cc3)no2)CC1 [Example 306, (3R)-3-amino-5-[(4-chlorophenyl)methyl]-7-[5-(1-ethyl-4-methyl-4-piperidyl)-1,2,4-oxadiazol-3-yl]-8-fluoro-1,1-dioxo-2,3-dihydro-1λ^6,5-benzothiazepin-4-one] | 571 nM | 79% | 3480 nM
CC1(c2nc(-c3cc4c(cc3F)[S+]([O-])C[C@H](N)C(=O)N4Cc3ccc(Cl)cc3)no2)CC[N+]([O-])(CC(F)(F)F)CC1 (stereo partly drawn) [Example 308, (3R)-3-amino-5-[(4-chlorophenyl)methyl]-8-fluoro-7-[5-[4-methyl-1-oxido-1-(2,2,2-trifluoroethyl)piperidin-1-ium-4-yl]-1,2,4-oxadiazol-3-yl]-1-oxo-2,3-dihydro-1λ^4,5-benzothiazepin-4-one] | > 10000 nM | 61% | 7630 nM
CC1(c2nc(-c3cc4c(cc3F)S(=O)(=O)C[C@H](N)C(=O)N4Cc3ccc(Cl)cc3)no2)CCN(CC(F)(F)F)CC1 [Example 309, (3R)-3-amino-5-[(4-chlorophenyl)methyl]-8-fluoro-7-[5-[4-methyl-1-(2,2,2-trifluoroethyl)-4-piperidyl]-1,2,4-oxadiazol-3-yl]-1,1-dioxo-2,3-dihydro-1λ^6,5-benzothiazepin-4-one] | 443 nM | 202% | –
CCOC(=O)N1CC2CC(c3nc(-c4cc5c(cc4F)S(=O)(=O)C[C@H](N)C(=O)N5Cc4ccc(Cl)cc4)no3)(C2)C1 [Example 315, ethyl 1-[3-[(3R)-3-amino-5-[(4-chlorophenyl)methyl]-8-fluoro-1,1,4-trioxo-2,3-dihydro-1λ^6,5-benzothiazepin-7-yl]-1,2,4-oxadiazol-5-yl]-3-azabicyclo[3.1.1]heptane-3-carboxylate] | 1030 nM | 131% | –
CC(C)OC(=O)N1CC2CC(c3nc(-c4cc5c(cc4F)S(=O)(=O)C[C@H](N)C(=O)N5Cc4ccc(Cl)cc4)no3)(C2)C1 [Example 316, isopropyl 1-[3-[(3R)-3-amino-5-[(4-chlorophenyl)methyl]-8-fluoro-1,1,4-trioxo-2,3-dihydro-1λ^6,5-benzothiazepin-7-yl]-1,2,4-oxadiazol-5-yl]-3-azabicyclo[3.1.1]heptane-3-carboxylate] | 679 nM | 112% | –
COC(=O)N1CC2CC(c3nc(-c4cc5c(cc4F)S(=O)(=O)C[C@H](N)C(=O)N5Cc4ccc(Cl)cc4)no3)(C2)C1 [Example 317, methyl 1-[3-[(3R)-3-amino-5-[(4-chlorophenyl)methyl]-8-fluoro-1,1,4-trioxo-2,3-dihydro-1λ^6,5-benzothiazepin-7-yl]-1,2,4-oxadiazol-5-yl]-3-azabicyclo[3.1.1]heptane-3-carboxylate] | 2230 nM | 142% | –

Source: US20240368150A1 (Hoffmann-La Roche Inc., priority 2021, published 2024)
